From ChEMBL document CHEMBL5154822, “Novel inhibitors of AChE and Aβ aggregation with neuroprotective properties as lead compounds for the treatment of Alzheimer's disease” (Eur J Med Chem, 2022)

Assays:
[1] = molecular target: T1, Acetylcholinesterase (Mus musculus, UniProt P21836); experiment: Inhibition of AChE in mouse cerebral cortex using acetylthiocholine iodide as substrate preincubated for 10 mins followed by substrate addition and measured for 180 secs by Ellman's spectrophotometric method; type: tissue-based
T1 sequence (P21836 whole entry): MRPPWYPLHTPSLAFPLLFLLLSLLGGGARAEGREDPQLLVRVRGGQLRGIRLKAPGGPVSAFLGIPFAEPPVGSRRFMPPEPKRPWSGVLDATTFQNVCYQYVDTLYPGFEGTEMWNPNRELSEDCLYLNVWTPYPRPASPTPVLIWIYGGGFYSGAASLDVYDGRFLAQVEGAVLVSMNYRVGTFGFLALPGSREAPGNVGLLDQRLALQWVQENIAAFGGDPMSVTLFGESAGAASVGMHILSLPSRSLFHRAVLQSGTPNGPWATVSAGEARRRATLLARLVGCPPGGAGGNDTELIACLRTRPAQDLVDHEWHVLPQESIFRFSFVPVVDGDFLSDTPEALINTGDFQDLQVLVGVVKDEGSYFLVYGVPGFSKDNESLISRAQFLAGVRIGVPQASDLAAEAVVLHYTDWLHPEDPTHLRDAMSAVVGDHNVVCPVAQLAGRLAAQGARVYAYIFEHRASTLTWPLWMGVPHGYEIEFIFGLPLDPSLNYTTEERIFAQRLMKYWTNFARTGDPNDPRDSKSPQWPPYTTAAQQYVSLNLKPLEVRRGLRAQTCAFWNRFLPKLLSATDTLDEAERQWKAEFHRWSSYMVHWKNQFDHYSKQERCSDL

[2] = molecular target: T2, Acetylcholinesterase (Mus musculus) (UniProt P21836); experiment: Inhibition of AChE in mouse cerebral cortex using acetylthiocholine iodide as substrate at 40 uM preincubated for 10 mins followed by substrate addition and measured for 180 secs by Ellman's spectrophotometric method; type: tissue-based; details: time 780.0 sec
T2 sequence (whole entry): T1 sequence (P21836 whole entry)

SMILES	IC50 [1] [nM]	inhibition [2] [%]
COc1cc2c(cc1OC)S(=O)(=O)C(CC1(F)CCN(Cc3cccc(F)c3)CC1)C2 (stereo unspecified)	5.1	
COc1cc2c(cc1OC)S(=O)(=O)C(CC1(F)CCN(Cc3ccc(F)cc3F)CC1)C2 (stereo unspecified)	7.1	
COc1cc2c(cc1OC)S(=O)(=O)C(CC1CCN(Cc3ccccc3)CC1)=C2	317	
COc1cc2c(cc1OC)S(=O)(=O)/C(=C/C1CCN(Cc3ccccc3)CC1)CCC2		32.8
COc1ccc(S(=O)(=O)/C=C/C2CCN(Cc3ccccc3)CC2)cc1OC	67.6	
COc1cc2c(cc1OC)S(=O)(=O)C(CC1(F)CCN(Cc3ccccc3C)CC1)C2 (stereo unspecified)	12.1	
COc1cc2c(cc1OC)S(=O)(=O)C(CC1CCN(Cc3ccccc3)CC1)C2 (stereo unspecified)	4.4	
CCOC(=O)/C(=C\C1CCN(Cc2ccccc2)CC1)S(=O)(=O)c1ccc(OC)c(OC)c1		12.4
COc1cc2c(cc1OC)S(=O)(=O)/C(=C/C1CCN(Cc3ccccc3)CC1)CC2	1820	
COc1cc2c(cc1OC)S(=O)(=O)C(CC1(F)CCN(Cc3ccc(F)c(Cl)c3)CC1)C2 (stereo unspecified)	12.9	
COc1cc2c(cc1OC)S(=O)(=O)C(CC1CCN(Cc3c(F)cc(F)cc3F)CC1)C2 (stereo unspecified)	128	
COc1cc2c(cc1OC)S(=O)(=O)C(CC1(F)CCN(Cc3cccc(Cl)c3)CC1)C2 (stereo unspecified)	5	
COc1cc2c(cc1OC)S(=O)(=O)C(CC1(F)CCN(Cc3ccccc3)CC1)C2 (stereo unspecified)	4.1	
COc1cc2c(cc1OC)S(=O)(=O)C(CC1CCN(Cc3ccccc3F)CC1)C2 (stereo unspecified)	11.5	
COc1cc2c(cc1OC)S(=O)(=O)C(CC1(F)CCN(Cc3ccc(F)cc3)CC1)C2 (stereo unspecified)	11.3	
CO/C(=C\C1CCN(Cc2ccccc2)CC1)S(=O)(=O)c1ccc(OC)c(OC)c1	8440	
